Source: patent publication US20220315554A1, “COMPOUNDS COMPRISING A […] LIGAND AND USE THEREOF” (priority 2019, published 2022)
Numbered stars: 1 amine (or outer) side, 2 acyl side, 3 side chain; on linkers, the order of the positions; unused ones are H or OH. Bridge positions count the residues as written; N and C are the ends. Peptide text beside a SMILES is read from it. * marks the point of attachment. X1 = O=C(O)CN1CCN(CC(=O)O)CCN(CC(=O)N2CCN(Cc3cc(C[*:1])cc(C[*:2])c3)CC2)CCN(CC(=O)O)CC1; Hexanoyl = CCCCCC(=O)*

Key:
5-HT2B (h) = 5-HT2B (h) (Homo sapiens, UniProt P41595); conditions: read-out: Ki Ref, reference compound (positive control)
[1] = Plasma stability assay, human plasma; format: in vitro ADME; conditions: 24 h incubation, 37° C., read-out: % intact compound remaining after incubation, Human plasma
[2] = Plasma stability assay, mouse plasma; format: in vitro ADME; conditions: 24 h incubation, 37° C., read-out: % intact compound remaining after incubation, Mouse plasma
[3] = biological target: T1, FAP-expressing human WI-38 fibroblasts (Homo sapiens, UniProt Q12884); experiment: Competitive FACS binding assay; conditions: pIC50 Category (FACS), competition with 3 nM Cy5-labeled compound, WI-38 fibroblasts, 4° C., 1 hour
T1 construct: FAP-expressing human WI-38 fibroblasts (ECACC) were cultured in EMEM; host or cells: WI-38 human fibroblasts
T1 sequence (Q12884 1-760): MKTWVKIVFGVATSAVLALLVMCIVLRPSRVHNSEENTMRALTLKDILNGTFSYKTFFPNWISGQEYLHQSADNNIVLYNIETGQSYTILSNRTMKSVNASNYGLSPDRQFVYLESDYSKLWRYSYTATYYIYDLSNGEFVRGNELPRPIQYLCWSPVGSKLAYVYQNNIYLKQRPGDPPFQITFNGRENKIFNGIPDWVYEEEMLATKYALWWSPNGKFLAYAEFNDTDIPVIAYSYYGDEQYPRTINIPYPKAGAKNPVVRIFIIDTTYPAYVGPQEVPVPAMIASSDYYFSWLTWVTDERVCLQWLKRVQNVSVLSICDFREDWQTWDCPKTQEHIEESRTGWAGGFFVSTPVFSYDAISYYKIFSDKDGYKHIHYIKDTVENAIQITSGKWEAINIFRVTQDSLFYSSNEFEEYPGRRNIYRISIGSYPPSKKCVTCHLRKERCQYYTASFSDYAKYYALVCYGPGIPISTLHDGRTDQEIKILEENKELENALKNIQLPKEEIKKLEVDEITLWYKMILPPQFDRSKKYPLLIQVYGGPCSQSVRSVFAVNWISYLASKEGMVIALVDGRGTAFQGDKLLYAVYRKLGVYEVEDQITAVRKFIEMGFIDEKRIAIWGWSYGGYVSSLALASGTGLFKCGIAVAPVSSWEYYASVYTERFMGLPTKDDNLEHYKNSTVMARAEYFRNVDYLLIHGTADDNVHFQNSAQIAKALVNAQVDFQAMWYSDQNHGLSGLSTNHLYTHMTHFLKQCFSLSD
Experimental: Cells were analyzed in an Attune NxT flow cytometer. […]

Human recombinant FAP [4] = biological target: T2, Human recombinant FAP (Homo sapiens, UniProt Q12884); experiment: Surface plasmon resonance (Biacore) assay; format: binding
T2 sequence (Q12884 1-760): T1 sequence (Q12884 1-760)

recombinant human PREP = biological target: T3, recombinant human PREP (Homo sapiens, UniProt P48147); experiment: PREP protease activity assay; format: biochemical
T3 construct: purchased R&D systems 4308-SE
T3 sequence (P48147 1-710): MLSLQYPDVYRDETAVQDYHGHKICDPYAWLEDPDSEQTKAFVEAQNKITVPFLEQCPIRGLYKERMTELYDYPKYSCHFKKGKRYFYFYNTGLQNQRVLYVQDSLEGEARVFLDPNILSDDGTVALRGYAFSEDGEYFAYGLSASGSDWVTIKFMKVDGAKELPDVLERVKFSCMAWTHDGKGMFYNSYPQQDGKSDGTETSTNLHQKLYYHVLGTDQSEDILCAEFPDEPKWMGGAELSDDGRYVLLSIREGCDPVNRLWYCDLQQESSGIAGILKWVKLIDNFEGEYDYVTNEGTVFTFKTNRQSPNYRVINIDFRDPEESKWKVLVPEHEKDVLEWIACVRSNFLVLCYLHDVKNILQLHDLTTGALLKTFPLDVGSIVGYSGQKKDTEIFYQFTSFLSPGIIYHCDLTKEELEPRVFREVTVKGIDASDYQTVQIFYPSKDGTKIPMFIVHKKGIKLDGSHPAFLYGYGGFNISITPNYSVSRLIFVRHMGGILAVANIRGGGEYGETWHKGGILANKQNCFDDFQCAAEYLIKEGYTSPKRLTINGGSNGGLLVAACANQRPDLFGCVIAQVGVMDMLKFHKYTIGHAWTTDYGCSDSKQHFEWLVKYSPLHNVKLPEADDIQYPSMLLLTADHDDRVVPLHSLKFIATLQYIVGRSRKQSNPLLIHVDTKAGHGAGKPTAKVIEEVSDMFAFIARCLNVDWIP

Recombinant human DPP4 = biological target: T4, Recombinant human DPP4 (Homo sapiens, UniProt P27487); experiment: DPP4 protease activity assay; format: biochemical
T4 construct: purchased R&D systems 9168-SE

Na+ channel (site 2) = experiment: SafetyScreen44: Na+ channel (site 2) (antagonist radioligand); format: binding; conditions: 10 μM
proteases [5] = biological target: T5, proteases (Hepatitis C virus genotype 1a, UniProt P27958, D1194V); experiment: biochemical; conditions: read-out: Percentage inhibition (%)
T5 construct: BPS Biosciences (contract assay)

proteases [6] = biological target: T6, proteases (Hepatitis C virus genotype 1b, UniProt P26663); experiment: biochemical; conditions: read-out: Percentage inhibition (%)
T6 construct: BPS Biosciences (contract assay)

proteases [7] = biological target: T7, proteases (Hepatitis C virus genotype 1b, UniProt P26663, D1194V); experiment: biochemical; conditions: read-out: Percentage inhibition (%)
T7 construct: BPS Biosciences (contract assay)

proteases [8] = biological target: T8, proteases (Hepatitis C virus genotype 1b, UniProt P26663, R1181K); experiment: biochemical; conditions: read-out: Percentage inhibition (%)
T8 construct: BPS Biosciences (contract assay)

proteases [9] = biological target: T9, proteases (Hepatitis C virus genotype 1b, UniProt P26663, R1181Q); experiment: biochemical; conditions: read-out: Percentage inhibition (%)
T9 construct: BPS Biosciences (contract assay)

BZD (central) = conditions: 10 μM
NMDA = conditions: 10 μM
[10] = tested on: Ca2+ channel (L, dihydropyridine site); conditions: 10 μM
KV channel = conditions: 10 μM
in vitro = conditions: rat, plasma
hERG potassium channel = hERG potassium channel (Homo sapiens, UniProt Q12809); experiment: in vitro
AR (h) = AR (h) (Homo sapiens, UniProt P10275, T878A); experiment: biochemical; conditions: read-out: % Inhibition of Specific Binding
Human recombinant FAP [11] = biological target: T2, Human recombinant FAP; experiment: FRET-based FAP protease activity assay; format: biochemical; design: purchased R&D systems 3715-SE; conditions: pIC50 Category (Activity), recombinant human FAP, FRET substrate, 37° C.
in vivo = conditions: rat, plasma, intravenous; for Vd: rat plasma
alpha 1A (h) = alpha 1A (h) (Homo sapiens, UniProt P35348); conditions: read-out: Ki Ref, reference compound (positive control)
HEK-FAP tumors = experiment: Efficacy study HEK-FAP tumors; conditions: throughout the study
Sarc4809 PDX tumors = experiment: Efficacy study sarcoma Sarc4809 PDX model; conditions: throughout the study

COc1cc(CC(C)N)c(OC)cc1I (racemic) [(±)DOI]
Ki (5-HT2B (h)): 4.2 nM

CCCCCC(=O)N[C@H]1CSCc2cc(cc(CN3CCN(C(=O)CN4CCN(CC(=O)O)CCN(CC(=O)O)CCN(CC(=O)O)CC4)CC3)c2)CSC[C@@H](C(=O)N[C@@H](CC(=O)O)C(N)=O)NC(=O)[C@H](Cc2ccccc2)NC(=O)[C@H](CCC(N)=O)NC(=O)[C@H]([C@@H](C)O)NC(=O)[C@@H]2CCCN2C(=O)[C@@H]2CCCN2C1=O [3BP-3407, Hex-[Cys(tMeBn(DOTA-PP))-Pro-Pro-Thr-Gln-Phe-Cys]-Asp-NH2] (Hexanoyl-CPPTQFCD-NH2; linker 1-7 via X1)
remaining at 24 h, 9.8 µM [1]: 100% | remaining at 24 h, 9.8 µM [2]: 79% | IC50 [3]: < 10 nM | Kd (Human recombinant FAP [4]): < 10 nM | IC50 (recombinant human PREP): > 1000 nM | IC50 (Recombinant human DPP4): > 1000 nM | % Inhibition of Specific Binding (Na+ channel (site 2)): −7% | inhibition at 1 µM (proteases [5]): 1% | inhibition at 10 µM (proteases [5]): -68% | inhibition at 1 µM (proteases [6]): 1% | inhibition at 10 µM (proteases [6]): 5% | inhibition at 1 µM (proteases [7]): 1% | inhibition at 10 µM (proteases [7]): -6% | inhibition at 1 µM (proteases [8]): -2% | inhibition at 10 µM (proteases [8]): 5% | inhibition at 1 µM (proteases [9]): 0% | inhibition at 10 µM (proteases [9]): 2% | % Inhibition of Specific Binding (BZD (central)): −9% | % Inhibition of Specific Binding (NMDA): 9% | % Inhibition of Specific Binding [10]: 42% | % Inhibition of Specific Binding (KV channel): −5% | remaining at 24 h, 9.8 µM (in vitro): 100% | inhibition at 10 µM (hERG potassium channel): 2% | inhibition at 10 µM (AR (h)): 3% | IC50 (Human recombinant FAP [11]): < 10 nM

CCCCCC(=O)N[C@H]1CSCc2cc(CSCCNC(=O)CN3CCN(CC(=O)O)CCN(CC(=O)O)CCN(CC(=O)O)CC3)cc(c2)CSC[C@@H](C(=O)O)NC(=O)[C@H](Cc2ccccc2)NC(=O)[C@H](CCC(N)=O)NC(=O)[C@H]([C@@H](C)O)NC(=O)[C@@H]2CCCN2C(=O)[C@@H]2CCCN2C1=O [3BP-3554, Hex-[Cys(tMeBn(DOTA-AET))-Pro-Pro-Thr-Gln-Phe-Cys]-OH]
remaining at 24 h, 9.8 µM [1]: 100% | IC50 [3]: < 10 nM | Kd (Human recombinant FAP [4]): < 10 nM | IC50 (recombinant human PREP): > 1000 nM | IC50 (Recombinant human DPP4): > 1000 nM | % Inhibition of Specific Binding (Na+ channel (site 2)): 14% | inhibition at 1 µM (proteases [5]): -39% | inhibition at 1 µM (proteases [6]): -5% | inhibition at 10 µM (proteases [6]): -9% | inhibition at 1 µM (proteases [7]): -2% | inhibition at 10 µM (proteases [7]): -17% | inhibition at 1 µM (proteases [8]): -1% | inhibition at 10 µM (proteases [8]): 0% | inhibition at 1 µM (proteases [9]): 0% | inhibition at 10 µM (proteases [9]): -5% | % Inhibition of Specific Binding (BZD (central)): 5% | % Inhibition of Specific Binding (NMDA): 1% | % Inhibition of Specific Binding [10]: 54% | % Inhibition of Specific Binding (KV channel): 4% | remaining at 24 h, 9.8 µM (in vitro): 100% | AUC(0-inf) (in vivo; 2 nmol/kg): 0.0081 µM·h | C0 (in vivo; 2 nmol/kg): 10.3 nM | clearance (in vivo; 2 nmol/kg): 4.13 mL/min/kg | half-life (in vivo; 2 nmol/kg): 54 min | Vd (in vivo; 2 nmol/kg, Vss, 2 nmol/kg): 0.28 L/kg | Vd (in vivo; 2 nmol/kg, Vz): 0.32 L/kg | AUC(0-inf) (in vivo; 20 nmol/kg): 0.069 µM·h | C0 (in vivo; 20 nmol/kg): 111 nM | clearance (in vivo; 20 nmol/kg): 4.85 mL/min/kg | half-life (in vivo; 20 nmol/kg): 50 min | Vd (in vivo; 20 nmol/kg, Vss, 20 nmol/kg): 0.3 L/kg | Vd (in vivo; 20 nmol/kg, Vz): 0.35 L/kg | AUC(0-inf) (in vivo; 200 nmol/kg): 0.726 µM·h | C0 (in vivo; 200 nmol/kg): 1480 nM | clearance (in vivo; 200 nmol/kg): 4.58 mL/min/kg | half-life (in vivo; 200 nmol/kg): 63 min | Vd (in vivo; 200 nmol/kg, Vss, 200 nmol/kg): 0.17 L/kg | Vd (in vivo; 200 nmol/kg, Vz): 0.42 L/kg | inhibition at 10 µM (hERG potassium channel): 6% | inhibition at 10 µM (AR (h)): -5% | IC50 (Human recombinant FAP [11]): < 10 nM

COc1cccc(OC)c1OCCNCC1COc2ccccc2O1 (stereo not shown) [WB 4101]
Ki (alpha 1A (h)): 0.24 nM

CCCCCC(=O)N[C@H]1CSCc2cc(CSCCNC(=O)CN3CCN(CC(=O)O)CCN(CC(=O)O)CCN(CC(=O)O)CC3)cc(c2)CSC[C@@H](C(=O)O)NC(=O)[C@H](Cc2ccccc2)NC(=O)[C@H](CCC(N)=O)NC(=O)[C@H]([C@@H](C)O)NC(=O)[C@@H]2CCCN2C(=O)[C@@H]2CCCN2C1=O [^177Lu-3BP-3554, metal not drawn]
treatment-related body weight loss (HEK-FAP tumors): No treatment-related body weight loss | treatment-related body weight loss (BWL) (Sarc4809 PDX tumors): No treatment-related body weight loss
